Measurements from patent US20150126467A1, “USE OF ALGINATE OLIGOMERS TO ENHANCE THE EFFECTS OF ANTIFUNGAL AGENTS” (AlgiIPharma AS, priority 2011, published 2015).
In brackets after ≈: the same amount, converted by molar mass. Where two headings read alike, the source gives them in different places.

Legend:
[1] = system: various Aspergillus species; assay: Robotic MIC assay, summary over species (Example 4); assay type: cell-based; conditions: Aspergillus species tested
Description: Aspergillus sp. was grown at 30° C. for 96 h on YM-agar. Spores and aerial mycelium was cut out from the agar, suspended in 1 ml YM-broth and dispersed with glass beads (1 mm) in a mini bead beater for 2 min. Glycerol was added to the suspension to 10% and frozen at −80° C.
Each batch of frozen stock culture was then characterized in separate growth experiments using Mueller-Hinton broth to determine the minimum amount of inoculum giving satisfactory growth after 48 h under the conditions relevant for the MIC assay. This inoculation procedure is used in order to reduce day to day variation in bioassays.
Robotic minimum inhibitory concentration (MIC) assay was performed as follows. OligoG CF-5/20 was dissolved in medium (Mueller-Hinton broth) to 1.25 times of the desired assay concentrations (2, 6 and 10%). […].
Two-fold serial dilutions of antifungal agents were made in medium with different concentrations of OligoG CF-5/20, and the solutions were placed in four parallel wells in Nunc 384-well micro plates (30 μl per well in Nunc 242757 microplates). A group of 8 wells with no addition of antifungal agents for each OligoG CF-5/20 concentration was included on each micro plate as growth reference. Each well in the 384-well assay plates was added 7.5 μl of the MH medium inoculated with frozen stock culture of the relevant strains.
The microplates were placed in plastic bags and incubated without shaking at 34° C. The optical density at 600 nm in the microwells was measured after approximately 24 and 48 hours of incubation. […]

[2] = system: C. tropicalis 519468 (urinary); assay: Robotic MIC assay, Candida strains (Example 2); assay type: cell-based; conditions: Candida tropicalis, 48 h, Mueller-Hinton broth, read-out: Minimum Inhibitory Concentration (MIC)
Description: (§1) A robotic MIC Assay was performed as follows. OligoG CF-5/20 were dissolved in medium (Mueller-Hinton broth or M19 broth depending on experiment) to 1.25 times of the desired assay concentrations (2, 6 and 10%). The antifungal agents under test were dissolved in medium without OligoG CF-5/20 and in medium with OligoG CF-5/20 at a concentration of 1.25 times the highest desired assay concentrations. For experiments where the effect of adding different concentrations of Na^+ was investigated, NaCl was dissolved in medium to the desired concentrations (10, 30 and 50 mM).
(§2) Two-fold serial dilutions of antifungal agents were made in medium with different concentrations of OligoG CF-5/20, and the solutions were placed in four parallel wells in Nunc 384-well micro plates (30 μl per well in Nunc 242757 microplates). A group of 8 wells with no addition of antifungal agents for each OligoG CF-5/20 concentration was included on each microplate as growth reference. To each well in the 384-well assay plates was added 7.5 μl of medium inoculated with a frozen stock culture of Candida albicans (strain CCUG 39343).
(§3) The micro plates were placed in plastic bags and incubated without shaking at 34° C. The optical density at 600 nm in the microwells was measured after approximately 13, 18, 24 and 34 hours of incubation, and the relative growth yield in each well was calculated based on the growth in the reference groups.
(§4) The robotic assay described in Example 1 was employed in this Example. Strains were grown in Mueller-Hinton broth (LAB114 from Lab M Limited) and MIC values (μg ml-1) were determined for each antifungal after incubation for 48 h in the presence of 0, 2, 6 and 10% OligoG CF-5/20 G-fragments. […] OligoG CF-5/20 G-fragments were provided by AlgiPharma AS, Norway.
(§5) Candida strains used were as follows: • C. albicans CCUG 39343 (strain from culture collection) • C. parapsillosis ATCC 22019T (strain from culture collection) • C. krusei 141/03 (candidosis) • C. krusei 249/03(2) (ulceration) • C. lusitaniae 994/01(2) (candidosis) • C. tropicalis 12 (vaginal) • C. tropicalis 75 (vaginal) • C. tropicalis 519468 (urinary) • C. tropicalis 544123 (urinary) • C. tropicalis 250/03 (candidosis) • C. tropicalis AG1 (oral) • C. tropicalis T2.2 (oral)

[3] = system: C. lusitaniae 994/01(2) (candidosis); assay: Robotic MIC assay, Candida strains (Example 2); assay type: cell-based; conditions: Clavispora lusitaniae, 48 h, Mueller-Hinton broth, read-out: Minimum Inhibitory Concentration (MIC)
Description: as §1, §2, §3, §4, §5

[4] = system: C. tropicalis 250/03 (candidosis); assay: Robotic MIC assay, Candida strains (Example 2); assay type: cell-based; conditions: Candida tropicalis, 48 h, C. tropicalis 250/03 Candiosis, Mueller-Hinton broth, read-out: Minimum Inhibitory Concentration (MIC)
Description: as §1, §2, §3, §4, §5

[5] = system: C. tropicalis 544123 (urinary); assay: Robotic MIC assay, Candida strains (Example 2); assay type: cell-based; conditions: Candida tropicalis, 48 h, Mueller-Hinton broth, read-out: Minimum Inhibitory Concentration (MIC)
Description: as §1, §2, §3, §4, §5

[6] = system: C. tropicalis 75 (vaginal); assay: Robotic MIC assay, Candida strains (Example 2); assay type: cell-based; conditions: Candida tropicalis, 48 h, Mueller-Hinton broth, read-out: Minimum Inhibitory Concentration (MIC)
Description: as §1, §2, §3, §4, §5

[7] = system: C. albicans CCUG 39343; assay: Robotic MIC assay, Candida strains (Example 2); assay type: cell-based; conditions: Candida albicans, CCUG39343, 48 h, Mueller-Hinton broth, read-out: Minimum Inhibitory Concentration (MIC)
Description: as §1, §2, §3, §4, §5

[8] = system: C. krusei 141/03 (candidosis); assay: Robotic MIC assay, Candida strains (Example 2); assay type: cell-based; conditions: Pichia kudriavzevii, 48 h, Mueller-Hinton broth, read-out: Minimum Inhibitory Concentration (MIC)
Description: as §1, §2, §3, §4, §5

[9] = system: C. tropicalis T2.2 (oral); assay: Robotic MIC assay, Candida strains (Example 2); assay type: cell-based; conditions: Candida tropicalis, 48 h, Mueller-Hinton broth, read-out: Minimum Inhibitory Concentration (MIC)
Description: as §1, §2, §3, §4, §5

[10] = system: C. tropicalis AG1 (oral); assay: Robotic MIC assay, Candida strains (Example 2); assay type: cell-based; conditions: Candida tropicalis, 48 h, Mueller-Hinton broth, read-out: Minimum Inhibitory Concentration (MIC)
Description: as §1, §2, §3, §4, §5

[11] = system: C. tropicalis 12 (vaginal); assay: Robotic MIC assay, Candida strains (Example 2); assay type: cell-based; conditions: Candida tropicalis, 48 h, Mueller-Hinton broth, read-out: Minimum Inhibitory Concentration (MIC)
Description: as §1, §2, §3, §4, §5

[12] = system: C. krusei 249/03(2) (ulceration); assay: Robotic MIC assay, Candida strains (Example 2); assay type: cell-based; conditions: Pichia kudriavzevii, 48 h, Mueller-Hinton broth, read-out: Minimum Inhibitory Concentration (MIC)
Description: as §1, §2, §3, §4, §5

[13] = system: C. parapsillosis ATCC 22019T; assay: Robotic MIC assay, Candida strains (Example 2); assay type: cell-based, Candida parapsilosis; conditions: Lodderomyces parapsilosis, ATCC22019, 48 h, Mueller-Hinton broth, read-out: Minimum Inhibitory Concentration (MIC)
Description: as §1, §2, §3, §4, §5

For `C[C@@H]1[C@H](O)[C@@H](C)/C=C/C=C/C=C/C=C/C=C/C=C/C=C/[C@H](O[C@@H]2O[C@H](C)[C@@H](O)[C@H](N)[C@@H]2O)C[C@@H]2O[C@](O)(C[C@@H](O)C[C@@H](O)[C@H](O)CC[C@@H](O)C[C@@H](O)CC(=O)O[C@H]1C)C[C@H](O)[C@H]2C(=O)O` [Amphotericin B, amphotericin B], which “effect of addition of OligoG CF-5/20 on MIC values” [1] is on record?
Its value is “reduction in MIC values”.

How did the MIC ([2]; 0% OligoG) turn out when `OC(Cn1cncn1)(Cn1cncn1)c1ccc(F)cc1F` [Fluconazole, fluconazole] was run?
Its MIC is 128 µg/mL (≈ 418 µM).

And the MIC ([2]; 2% OligoG)?
Its MIC is 1 µg/mL (≈ 3.27 µM).

What about the MIC ([2]; 6% OligoG) of the same compound?
Its MIC is 0.5 µg/mL (≈ 1.63 µM).

And the MIC ([2]; 10% OligoG)?
Its MIC is 0.25 µg/mL (≈ 0.816 µM).

And the MIC ([3]; 0% OligoG)?
The MIC was 0.5 µg/mL (≈ 1.63 µM).

What about the MIC ([3]; 2% OligoG) of the same compound?
The MIC was 0.25 µg/mL (≈ 0.816 µM).

What about the MIC ([3]; 6% OligoG) of the same compound?
The MIC was under 0.125 µg/mL.

What about the MIC ([3]; 10% OligoG) of the same compound?
Its MIC is under 0.125 µg/mL.

What about the MIC ([4]; 0% OligoG) of the same compound?
The MIC was 8 µg/mL (≈ 26.1 µM).

What about the MIC ([4]; 2% OligoG) of the same compound?
The MIC was 4 µg/mL (≈ 13.1 µM).

What about the MIC ([4]; 6% OligoG) of the same compound?
Its MIC is 2 µg/mL (≈ 6.53 µM).

What about the MIC ([4]; 10% OligoG) of the same compound?
Its MIC is 2 µg/mL (≈ 6.53 µM).

What about the MIC ([5]; 0% OligoG) of the same compound?
The MIC was 1 µg/mL (≈ 3.27 µM).

And the MIC ([5]; 2% OligoG)?
The MIC was 1 µg/mL (≈ 3.27 µM).

What about the MIC ([5]; 6% OligoG) of the same compound?
Its MIC is 0.5 µg/mL (≈ 1.63 µM).

And the MIC ([5]; 10% OligoG)?
Its MIC is 0.25 µg/mL (≈ 0.816 µM).

What about the MIC ([6]; 0% OligoG) of the same compound?
The MIC was 2 µg/mL (≈ 6.53 µM).

What about the MIC ([6]; 2% OligoG) of the same compound?
The MIC was 1 µg/mL (≈ 3.27 µM).

And the MIC ([6]; 6% OligoG)?
The MIC was 0.5 µg/mL (≈ 1.63 µM).

What about the MIC ([6]; 10% OligoG) of the same compound?
The MIC was 0.25 µg/mL (≈ 0.816 µM).

And the MIC ([7]; 0% OligoG)?
Its MIC is 16 µg/mL (≈ 52.2 µM).

What about the MIC ([7]; 2% OligoG) of the same compound?
Its MIC is 16 µg/mL (≈ 52.2 µM).

And the MIC ([7]; 6% OligoG)?
The MIC was 8 µg/mL (≈ 26.1 µM).

What about the MIC ([7]; 10% OligoG) of the same compound?
Its MIC is 4 µg/mL (≈ 13.1 µM).

What about the MIC ([8]; 0% OligoG) of the same compound?
The MIC was 128 µg/mL (≈ 418 µM).

What about the MIC ([8]; 2% OligoG) of the same compound?
The MIC was 64 µg/mL (≈ 209 µM).

And the MIC ([8]; 6% OligoG)?
The MIC was 64 µg/mL (≈ 209 µM).

And the MIC ([8]; 10% OligoG)?
Its MIC is 64 µg/mL (≈ 209 µM).

And the MIC ([9]; 0% OligoG)?
Its MIC is over 128 µg/mL.

And the MIC ([9]; 2% OligoG)?
The MIC was 0.5 µg/mL (≈ 1.63 µM).

What about the MIC ([9]; 6% OligoG) of the same compound?
The MIC was 0.25 µg/mL (≈ 0.816 µM).

And the MIC ([9]; 10% OligoG)?
Its MIC is under 0.125 µg/mL.

And the MIC ([10]; 0% OligoG)?
The MIC was 128 µg/mL (≈ 418 µM).

What about the MIC ([10]; 2% OligoG) of the same compound?
Its MIC is over 128 µg/mL.

And the MIC ([10]; 6% OligoG)?
The MIC was 0.5 µg/mL (≈ 1.63 µM).

And the MIC ([10]; 10% OligoG)?
The MIC was 0.125 µg/mL (≈ 0.408 µM).

What about the MIC ([11]; 0% OligoG) of the same compound?
Its MIC is 1 µg/mL (≈ 3.27 µM).

What about the MIC ([11]; 2% OligoG) of the same compound?
The MIC was 1 µg/mL (≈ 3.27 µM).

What about the MIC ([11]; 6% OligoG) of the same compound?
Its MIC is under 0.125 µg/mL.

And the MIC ([11]; 10% OligoG)?
Its MIC is under 0.125 µg/mL.

And the MIC ([12]; 0% OligoG)?
Its MIC is 8 µg/mL (≈ 26.1 µM).

What about the MIC ([12]; 2% OligoG) of the same compound?
The MIC was 4 µg/mL (≈ 13.1 µM).

And the MIC ([12]; 6% OligoG)?
Its MIC is 2 µg/mL (≈ 6.53 µM).

What about the MIC ([12]; 10% OligoG) of the same compound?
Its MIC is 1 µg/mL (≈ 3.27 µM).

What about the MIC ([13]; 0% OligoG) of the same compound?
The MIC was 2 µg/mL (≈ 6.53 µM).

What about the MIC ([13]; 2% OligoG) of the same compound?
Its MIC is 2 µg/mL (≈ 6.53 µM).

And the MIC ([13]; 6% OligoG)?
The MIC was 0.5 µg/mL (≈ 1.63 µM).

What about the MIC ([13]; 10% OligoG) of the same compound?
The MIC was 0.25 µg/mL (≈ 0.816 µM).
